Positions count from the first letter of the chain named. Residues, ends and D or L forms follow the SMILES beside them. *: point of attachment. X1 = CN(CCCC(=O)NCc1ccc(COc2nc(N)nc3[nH]c(CCCNC(=O)CN4C(=O)C[C@H](*)C4=O)nc23)cc1)C(=O)c1ccccc1-c1c2ccc(=N)c(S(=O)(=O)O)c-2oc2c(S(=O)(=O)O)c(N)ccc12
What was measured:
[1] = target: T1, AGT21 (AGT mutant) (Homo sapiens, UniProt P16455, A127T/C150N/C62A/K125A/N157G/Q115S/Q116H/R128A/R135S/S151I/S152N/S159E); assay: Fluorescence-appearance assay and reactivity comparisons; format: biochemical; details: for reaction rate relative to the compound unsubstituted at C^8/N^9 / reaction rate relative to the corresponding N^9-substituted compound: AGT21; for reaction rate relative to the compound unsubstituted at C^8/N^9: comparator BG-TMR, BG-Atto488 or BG-FL; for reaction rate relative to the corresponding N^9-substituted compound: comparator compound 35, 27 or 29
T1 construct: and truncation at 182 is prepared according to the same method; GST (N); made in house; host or cells: E. coli BL21
T1 sequence (P16455 1-182 C62A/Q115S/Q116H/K125A/A127T/R128A/R135S/C150N/S151I/S152N/N157G/S159E): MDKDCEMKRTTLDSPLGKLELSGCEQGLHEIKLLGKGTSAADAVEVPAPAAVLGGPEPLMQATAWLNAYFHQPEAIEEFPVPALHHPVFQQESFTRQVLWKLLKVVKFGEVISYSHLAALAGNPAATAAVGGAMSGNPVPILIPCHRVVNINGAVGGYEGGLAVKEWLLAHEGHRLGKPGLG
Method: A third AGT mutant (“AGT21”) related to AGTM and containing the mutations Cys62Ala, Gln115Ser, Gln116His, Lys125Ala, Ala127Thr, Arg128Ala, Arg135Ser, Cys150Asn, Ser15111e, Ser152Asn, Asn157Gly, Ser159G1u, and truncation at 182 is prepared according to the same method.
(§1) In a further assay, purified protein of AGT mutants AGTM and AGT21 (Example 47) at a protein concentration of 10 μM are incubated with 100 nM N-[4-(2-Amino-9-(3-QSY9-aminopropyl)-purin-6-yloxymethyl)-benzyl]-tetramethylrhodamine-5(6)-carboxamide (35, N^9-QSY9-BG-TMR, Example 19) in a buffer containing 100 mM NaCl, 50 mM Tris, pH 8.0, 0.1% Tween, 1 mM DTT, at room temperature. The fluorescence intensity (531 nm excitation/595 nm emission) is followed using a Victor2 microplate reader (Perkin Elmer).
(§2) Further reactivity comparisons gave the following results: […]

[2] = target: T2, AGTM (AGT mutant) (Homo sapiens, UniProt P16455, A127T/C150N/C62A/G131K/G132T/K125A/M134L/N157G/Q115S/Q116H/R128A/R135S/S151I/S152N/S159E); assay: as above; format: biochemical; details: for reaction rate relative to the compound unsubstituted at C^8/N^9 / reaction rate relative to the corresponding N^9-substituted compound: AGTM; for reaction rate relative to the compound unsubstituted at C^8/N^9: comparator BG-TMR, BG-Atto488 or BG-FL; for reaction rate relative to the corresponding N^9-substituted compound: comparator compound 35, 27 or 29
T2 construct: a truncation after codon 182 into the mutant AGT gene; GST (N); made in house; host or cells: E. coli BL21
T2 sequence (P16455 1-182 C62A/Q115S/Q116H/K125A/A127T/R128A/G131K/G132T/M134L/R135S/C150N/S151I/S152N/N157G/S159E): T1 sequence (P16455 1-182 C62A/Q115S/Q116H/K125A/A127T/R128A/R135S/C150N/S151I/S152N/N157G/S159E) with G131K, G132T, M134L
Source text: A second AGT mutant (“AGTM”) containing the mutations Cys62Ala, Gln115Ser, Gln116His, Lys125Ala, Ala127Thr, Arg128Ala, Gly131Lys, Gly132Thr, Met134Leu, Arg135Ser, Cys150Asn, Ser15111e, Ser152Asn, Asn157Gly, Ser159G1u, and truncation at 182 is derived from the mentioned above AGT mutant by subsequent introduction of further mutations and a truncation after codon 182 into the mutant AGT gene. Subsequent PCR amplifications gives rise to the further mutated gene that is subcloned into pGEX2T as described for the first mutant. The GST-fusion protein is expressed and purified as well.
as §1, with “The fluorescence intensity (531 nm excitation/595 nm emission) is followed using a Victor2 microplate reader (Perkin Elmer).” left out
as §2

[3] = target: T3, wild type hAGT (Homo sapiens, UniProt P16455); details: known values; cited from earlier work
T3 sequence (P16455 1-207): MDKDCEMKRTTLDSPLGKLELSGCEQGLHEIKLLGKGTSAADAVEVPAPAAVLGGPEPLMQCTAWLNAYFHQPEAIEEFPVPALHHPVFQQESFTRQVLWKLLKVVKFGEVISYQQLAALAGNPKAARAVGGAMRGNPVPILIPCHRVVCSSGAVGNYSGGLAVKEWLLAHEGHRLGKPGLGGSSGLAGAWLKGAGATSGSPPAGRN

[4] = target: T4, AGT26-CaaX fusion protein in CHO cells deficient in endogenous wildtype AGT (Homo sapiens, UniProt P16455, A127T/C150S/C62A/G131K/G132T/K125A/M134L/N157G/R128A/R135S/S159E); format: cell-based
T4 construct: and truncation at 182 is also prepared according to the same method; expressed in transfected cells
T4 sequence (P16455 1-182 C62A/K125A/A127T/R128A/G131K/G132T/M134L/R135S/C150S/N157G/S159E): T1 sequence (P16455 1-182 C62A/Q115S/Q116H/K125A/A127T/R128A/R135S/C150N/S151I/S152N/N157G/S159E) with S115Q, H116Q, G131K, G132T, M134L, N150S, I151S, N152S
Method: A fourth AGT mutant (“AGT26”) related to AGTM and containing the mutations Cys62Ala, Lys125Ala, Ala127Thr, Arg128Ala, Gly131Lys, Gly132Thr, Met134Leu, Arg135Ser, Cys150Ser, Asn157Gly, Ser159G1u, and truncation at 182 is also prepared according to the same method.
A vector for a fusion of AGT26 and the CaaX-farnesylation signal is transfected into CHO cells deficient in endogenous wildtype AGT. Stable transfectants are selected under geneticine treatment. For that purpose the gene of AGT26 is cloned into pCMV-Script (Stratagene) followed on its C-terminus by the CaaX-box sequence encoded in the pECP-F (Clontech). The final protein sequence (position 690-1271) yields a single polypeptide with 194 amino acids. […] All imaging is done with an inverted Zeiss fluorescence microscope Axiovert 40 CFL with filter sets for tetramethylrhodamine and for fluorescein.

[5] = 10 μM protein, 100 nM substrate, over 1 hour at 25° C.
[6] = fluorescence 490 nm excitation / 535 nm emission

N-[4-(2-Amino-9-(3-QSY9-aminopropyl)-purin-6-yloxymethyl)-benzyl]-tetramethylrhodamine-5(6)-carboxamide [compound 35]
increase of tetramethylrhodamine fluorescence [1, 5]: about 80%
increase of tetramethylrhodamine fluorescence [2, 5]: less than five percent

CN(CCCC(=O)NCc1ccc(COc2nc(N)nc3[nH]c(CCCNC(=O)c4ccc(/N=N/c5ccc(N(C)C)cc5)cc4)nc23)cc1)C(=O)c1ccccc1-c1c2ccc(=N)c(S(=O)(=O)O)c-2oc2c(S(=O)(=O)O)c(N)ccc12 [compound 45, N-[4-(2-Amino-8-(3-(4-[4-dimethylamino-phenyl]-azo-benzoyl)-aminopropyl)-9H-purin-6-yloxymethyl)-benzyl]-ATTO488-amide]
reaction rate relative to the compound unsubstituted at C^8/N^9 [1]: two times faster
reaction rate relative to the corresponding N^9-substituted compound [1]: at least four times faster
increase in reactivity compared to BG-Atto488 [1, 6]: twofold
reaction rate relative to the compound unsubstituted at C^8/N^9 [2]: three times faster
reaction rate relative to the corresponding N^9-substituted compound [2]: at least fifteen times faster
increased reactivity compared to BG-Atto488 [2, 6]: 3 fold

N-[4-(2-Amino-8-(3-QSY9-aminopropyl)-9H-purin-6-yloxymethyl)-benzyl]-tetramethylrhodamine-5(6)-carboxamide [compound 48]
reaction rate relative to the compound unsubstituted at C^8/N^9 [1]: two times faster
reaction rate relative to the corresponding N^9-substituted compound [1]: at least four times faster
reaction rate relative to the compound unsubstituted at C^8/N^9 [2]: two times faster
reaction rate relative to the corresponding N^9-substituted compound [2]: at least ten times faster

Nc1nc(OCc2ccccc2)c2ncn(C3C[C@H](O)[C@@H](CO)O3)c2n1 (stereo partly shown) [N^9-desoxyribosyl-O^6-benzylguanine]
rate constant of the reaction with wild type hAGT [3]: 340 s^−1M^−1

O^6-tetramethylrhodamine-benzylguanine [BG-TMR, reference compound]
labeling of cells (fluorescence microscopy) ([4]; 5 μM, 30 min, CHO cells with AGT26-CaaX): clear signal at the cell membrane

N-[4-(2-Amino-8-(3-(4-[4-dimethylamino-phenyl]-azo-benzoyl)-amino-propyl)-9H-purin-6-yloxymethyl)-benzyl]-fluoresceine-5(6)-carboxamide [compound 44]
reaction rate relative to the compound unsubstituted at C^8/N^9 [1]: two times faster
reaction rate relative to the corresponding N^9-substituted compound [1]: at least four times faster
reaction rate relative to the compound unsubstituted at C^8/N^9 [2]: two times faster
reaction rate relative to the corresponding N^9-substituted compound [2]: at least ten times faster

CN(CCCC(=O)NCc1ccc(COc2nc(N)nc3[nH]c(CCCNC(=O)CN4C(=O)C[C@H](SC[C@H](NC(=O)[C@H](CCCNC(=N)N)NC(=O)[C@H](CCCNC(=N)N)NC(=O)[C@H](CCCNC(=N)N)NC(=O)[C@H](CCCNC(=N)N)NC(=O)[C@H](CCCNC(=N)N)NC(=O)[C@H](CCCNC(=N)N)NC(=O)[C@H](CCCNC(=N)N)NC(=O)[C@H](CCCNC(=N)N)NC(=O)[C@H](CCCNC(=N)N)NC(=O)[C@@H](N)Cc5ccc(O)cc5)C(=O)O)C4=O)nc23)cc1)C(=O)c1ccccc1-c1c2ccc(=N)c(S(=O)(=O)O)c-2oc2c(S(=O)(=O)O)c(N)ccc12 [compound 60, Conjugate O^6-ATT0488-C^8-TyrArg9Cys] (H-YRRRRRRRRRC(X1)-OH; N-terminus and C-terminus assumed)
cell membrane permeability [4]: increased permeability
